Measurements: US5036080A, “(D)-6-fluoro-2,3-dihydro-2',5-dioxo-spiro[4H-1-benzo pyran-4,4'-imidazolide]-2-carboxamide compounds” (Sanwa Kagaku Kenyusho Co., Ltd., priority 1988, dated 1991)

Assays:
[1] = system: aldose reductase; conditions: cited from earlier work
[2] = biological target: T1, aldose reductase (Rattus norvegicus, UniProt P07943); assay: Inhibition of aldose reductase activity (procedure of Kador and Sharpless); format: biochemical; conditions: water-soluble extracts of crystalline lenses from rats
T1 construct: water-soluble extracts of crystalline lenses extracted from tested rats; from tissue; host or cells: rat crystalline lens, water-soluble extract
Procedure: Using water-soluble extracts of crystalline lenses extracted from tested rats, the inhibition of these compounds was determined.

Row | IC50 [2] | Compound | activity of inhibition to the aldose reductase in vitro and vivo tests, in comparison with other agents (in words) [1]
1 | – | NC(=O)[C@H]1CC2(NC(=O)NC2=O)c2cc(F)ccc2O1 (single isomer, unassigned) [(d)-6-fluoro-2,3-dihydro-2',5'-dioxo-spiro[4H-1-benzopyran-4,4'-imidazolidine]-2-carboxamide] | remarkable activity of inhibition to the aldose reductase
2 | 100 µM | Cc1ccc(S(=O)(=O)N2C(=O)NC3(C[C@H](C(N)=O)Oc4ccc(F)cc43)C2=O)cc1 (single isomer, unassigned) [Example 16-A, (d)-6-fluoro-1'-(p-toluenesulfonyl)-2,3-dihydro-2',5'-dioxo-spiro[4H-1-benzopyran-4,4'-imidazolidine]-2-carboxamide] | –
3 | 100 µM | CC(C)(C)C(=O)OCN1C(=O)NC2(C[C@H](C(N)=O)Oc3ccc(F)cc32)C1=O (single isomer, unassigned) [Example 6, (d)-6-Fluoro-1'-pivaloyloxymethyl-2,3-dihydro-2',5'-dioxo-spiro[4H-1-benzopyran-4,4'-imidazolidine]-2-carboxamide] | –
4 | 0.045 µM | COC(=O)N1C(=O)NC2(CC(C(N)=O)Oc3ccc(F)cc32)C1=O (single isomer, unassigned) [Example 3] | –
